Assays:
[1] = biological target: T1, human EAAT3 (Homo sapiens, UniProt P43005); assay: FLIPR Membrane Potential (FMP) assay, antagonist potency at human EAAT3 with L-glutamate as agonist; type: cell-based; conditions: HEK-293 cells stably expressing human EAAT3; L-glutamate at 80% of maximum response; antagonist applied 15 min before agonist; Kb by Cheng-Prusoff equation
T1 construct: expressed in transfected cells
T1 sequence (P43005 1-524): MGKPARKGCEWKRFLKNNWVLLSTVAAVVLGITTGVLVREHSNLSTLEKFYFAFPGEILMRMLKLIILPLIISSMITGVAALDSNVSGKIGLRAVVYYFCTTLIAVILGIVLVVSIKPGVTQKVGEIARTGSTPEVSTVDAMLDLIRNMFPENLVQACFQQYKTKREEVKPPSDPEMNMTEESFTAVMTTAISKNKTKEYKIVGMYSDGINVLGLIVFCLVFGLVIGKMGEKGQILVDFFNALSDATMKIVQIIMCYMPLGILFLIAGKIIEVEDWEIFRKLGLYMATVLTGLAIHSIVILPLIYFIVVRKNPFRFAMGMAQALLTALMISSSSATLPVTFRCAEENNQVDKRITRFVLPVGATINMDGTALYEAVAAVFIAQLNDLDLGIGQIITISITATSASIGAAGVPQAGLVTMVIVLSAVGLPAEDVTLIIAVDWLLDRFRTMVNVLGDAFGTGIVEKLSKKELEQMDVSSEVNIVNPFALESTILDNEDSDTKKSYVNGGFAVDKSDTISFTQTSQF
Protocol: The FLIPR Membrane Potential (FMP) Assay
HEK-293 cells stably expressing human EAAT3 were seeded at 55 000 cells/well in growth medium (DMEM glutamate free (Invitrogen 11960-044), 1% Pen Strep (10 ml/l GIBCO BRL No 15140-023), 10% FCS non dialysed heat inactivated, 5 mg/l puromycin) in poly-D-lysine treated 96-well black microtiter plates with clear-bottom. After 24 h, the growth medium was removed and 100 μl/well of Krebs buffer (140 mM NaCl, 4.7 mM KCl, 2.5 mM CaCl2, 1.2 mM MgCl2, 11 mM HEPES, 10 mM D-glucose, pH=7.4) added. The cells were then loaded by adding 100 μl/well FMP assay dye (FLIPR Membrane Potential assay reagent, Molecular Devices). The 96-well plates were then incubated at 37° C. for 1 h. The depolarization of the cells will cause more dye to enter in the cells, where it will bind to intracellular proteins and lipids and cause an increase in the fluorescence signal. Antagonist potency at human EAAT3 was determined by using L-glutamate as agonist at a concentration which gives 80% of the maximum response. The antagonists were applied 15 min before the application of the agonist L-glutamate. The assays were performed at room temperature and measurements done by using a Fluorometric Imaging Plate Reader (FLIPR, Molecular Devices) and filter #2. Responses were measured as peak increase in fluorescence minus basal (i.e. fluorescence without addition of L-glutamate). Kb was determined using the Cheng-Prusoff equation Kb=IC50/[1+(A/EC50)], where IC50 is the concentration of the antagonist producing 50% inhibition, A is the concentration of the agonist against which the IC50 is being determined (at EC50) and EC50 is the concentration of the agonist producing […].

SMILES	Kb [1] [µM]	melting point [°C]
CC(C)n1cncc1-c1cc(C(=O)NC(C)(C)C)cc(-c2ccc(F)cc2)c1 [Example 1, N-tert-Butyl-3-(4-fluorophenyl)-5-(3-propan-2-yl-imidazol-4-yl)-benzamide]	0.16	85
CC(C)n1cncc1-c1cc(C(=O)NC(C)(C)C)cc(-c2ccc(C(F)(F)F)cc2)c1 [Example 2, N-tert-Butyl-3-(3-propan-2-yl-imidazol-4-yl)-5-[4-(trifluoromethyl)-phenyl]-benzamide]	0.27	88
CC(C)n1cncc1-c1cc(C(=O)NC(C)(C)C)cc(-c2ccc(Cl)cc2)c1 [Example 3, N-tert-Butyl-3-(4-chlorophenyl)-5-(3-propan-2-yl-imidazol-4-yl)-benzamide]	0.14	97.5
Cn1cncc1-c1cc(C(=O)NC(C)(C)C)cc(-c2ccc(Cl)cc2)c1 [Example 4, N-tert-Butyl-3-(4-chlorophenyl)-5-(3-methyl-imidazol-4-yl)-benzamide]	0.29	79.5
Cn1cncc1-c1cc(C(=O)NC(C)(C)C)cc(-c2ccc(C(F)(F)F)cc2)c1 [Example 5, N-tert-Butyl-3-(3-methyl-imidazol-4-yl)-5-[4-(trifluoromethyl)-phenyl]-benzamide]	0.36	78.5
Cn1cncc1-c1cc(C(=O)NC(C)(C)C)cc(-c2ccc(F)cc2)c1 [Example 6, N-tert-Butyl-3-(4-fluorophenyl)-5-(3-methyl-imidazol-4-yl)-benzamide]	0.27	62
CC(C)(C)NC(=O)c1cc(-c2ccc(Cl)cc2)cc(-c2cncn2C(C)(C)C)c1 [Example 7, N-tert-Butyl-3-(3-tert-butyl-imidazol-4-yl)-5-(4-chlorophenyl)-benzamide]	0.2	92
CCn1cncc1-c1cc(C(=O)NC(C)(C)C)cc(-c2ccc(Cl)cc2)c1 [Example 8, N-tert-Butyl-3-(4-chlorophenyl)-5-(3-ethyl-imidazol-4-yl)-benzamide]	0.19	89
CCn1cncc1-c1cc(C(=O)NC(C)(C)C)cc(-c2ccc(F)cc2)c1 [Example 9, N-tert-Butyl-3-(3-ethyl-imidazol-4-yl)-5-(4-fluorophenyl)-benzamide]	0.16	79
CCn1cncc1-c1cc(C(=O)NC(C)(C)C)cc(-c2ccc(C(F)(F)F)cc2)c1 [Example 10, N-tert-Butyl-3-(3-ethyl-imidazol-4-yl)-5-[4-(trifluoromethyl)-phenyl]-benzamide]	0.23	87
CC(C)(C)NC(=O)c1cc(-c2ccc(F)cc2)cc(-c2cncn2C(C)(C)C)c1 [Example 11, N-tert-Butyl-3-(3-tert-butyl-imidazol-4-yl)-5-(4-fluorophenyl)-benzamide]	0.21	96
CC(C)(C)NC(=O)c1cc(-c2ccc(C(F)(F)F)cc2)cc(-c2cncn2C(C)(C)C)c1 [Example 12, N-tert-Butyl-3-(3-tert-butyl-imidazol-4-yl)-5-[4-(trifluoromethyl)-phenyl]-benzamide]	0.27	87

Reference: patent publication US10556870B2, “Imidazole compounds as EAAT3 inhibitors” (Hoffmann-La Roche Inc., priority 2016, dated 2020)
